Like-named read-outs stand apart in the source and are kept apart here.
Target: T1, human FPR2 receptors (Homo sapiens, UniProt P25090)
T1 sequence (P25090 1-351): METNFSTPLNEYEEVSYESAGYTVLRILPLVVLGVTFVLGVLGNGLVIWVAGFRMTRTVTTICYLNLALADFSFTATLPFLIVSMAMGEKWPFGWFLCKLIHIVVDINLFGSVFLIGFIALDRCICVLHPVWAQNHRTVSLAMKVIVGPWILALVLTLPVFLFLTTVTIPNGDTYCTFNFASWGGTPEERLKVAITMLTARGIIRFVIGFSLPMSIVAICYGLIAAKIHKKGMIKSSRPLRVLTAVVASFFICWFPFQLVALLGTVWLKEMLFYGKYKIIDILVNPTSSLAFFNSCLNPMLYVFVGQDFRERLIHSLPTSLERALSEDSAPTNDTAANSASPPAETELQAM
Assay: FPR2 cAMP assay in CHO cells overexpressing human FPR2 (HTRF)
Format: cell-based
Excerpt: N-formyl peptide receptors (FPRs) are a family of chemo attractant receptors that facilitate leukocyte response during inflammation. FPRs belong to the seven-transmembrane G protein-coupled receptor superfamily and are linked to inhibitory G-proteins (Gi). Three family members (FPR1, FPR2 and FPR3) have been identified in humans and are predominantly found in myeloid cells with varied distribution and have also been reported in multiple organs and tissues. After agonist binding, the FPRs activate a multitude of physiological pathways, such as intra cellular signaling transduction, Ca^2+ mobilization and transcription. The family interacts with a diverse set of ligands that includes proteins, polypeptides and fatty acid metabolites which activate both pro-inflammatory and pro-resolution downstream responses. FPR2 and FPR1 Cyclic Adenosine Monophosphate (cAMP) Assays were used to measure the in vitro activity of the compounds disclosed in this application.
FPR2 and FPR1 Cyclic Adenosine Monophosphate (cAMP) Assays. A mixture of forskolin (5 μM final for FPR2 or 10 μM final for FPR1) and IBMX (200 μM final) were added to 384-well Proxiplates (Perkin-Elmer) pre-dotted with test compounds in DMSO (1% final) at final concentrations in the range of 0.020 nM to 100 μM. Chinese Hamster Ovary cells (CHO) overexpressing human FPR1 or human FPR2 receptors were cultured in F-12 (Ham's) medium supplemented with 10% qualified FBS, 250 μg/ml zeocin and 300 μg/ml hygromycin (Life Technologies). Reactions were initiated by adding 2,000 human FPR2 cells per well or 4,000 human FPR1 cells per well in Dulbecco's PBS (with calcium and magnesium) (Life Technologies) supplemented with 0.1% BSA (Perkin-Elmer). The reaction mixtures were incubated for 30 min at room temperature. The level of intracellular cAMP was determined using the HTRF HiRange cAMP assay reagent kit (Cisbio) according to manufacturer's instruction. Solutions of cryptate conjugated anti-cAMP and d2 flurorophore-labelled cAMP were made in a supplied lysis buffer separately. Upon completion of the reaction, the cells were lysed with equal volume of the d2-cAMP solution and anti-cAMP solution. After a 1-h room temperature incubation, time-resolved fluorescence intensity was measured using the Envision (Perkin-Elmer) at 400 nm excitation and dual emission at 590 nm and 665 nm. A calibration curve was constructed with an external cAMP standard at concentrations ranging from 1 μM to 0.1 pM by plotting the fluorescent intensity ratio from 665 nm emission to the intensity from the 590 nm emission against cAMP concentrations. The potency and activity of a compound to inhibit cAMP production was then determined by fitting to a 4-parametric logistic equation from a plot of cAMP level versus compound concentrations.

[1] = hFPR2 assay, potency bins, read-out: hFPR2 agonist activity EC50

SMILES	EC50 [1] [µM]	EC50 (CHO cells overexpressing human FPR2, forskolin 5 μM, inhibition of cAMP production, read-out: hFPR2 cAMP2 EC50) [µM]
COc1cc(F)c([C@@H]2CNC(=O)[C@H]2Nc2nnc(-c3ccc(C(C)C)cc3)o2)c(F)c1 [Example 39, (3S,4R)-4-(2,6-difluoro-4-methoxyphenyl)-3-({5-[4-(propan-2-yl)phenyl]-1,3,4-oxadiazol-2-yl}amino)pyrrolidin-2-one]	0.15 to 1	
COc1cc(F)c([C@@H]2CNC(=O)[C@H]2Nc2cc(-c3ccc(Cl)cc3)on2)c(F)c1 [Example 21, (3S,4R)-3-{[5-(4-chlorophenyl)-1,2-oxazol-3-yl]amino}-4-(2,6-difluoro-4-methoxyphenyl)pyrrolidin-2-one]		0.01
COc1cc(F)c([C@@H]2CNC(=O)[C@H]2Nc2nnc(C(=O)NCCc3ccc(Cl)cc3)o2)c(F)c1 [Example 54, N-[2-(4-chlorophenyl)ethyl]-5-{[(3S,4R)-4-(2,6-difluoro-4-methoxyphenyl)-2-oxopyrrolidin-3-yl]amino}-1,3,4-oxadiazole-2-carboxamide]	0.15 to 1	
COc1cc(F)c([C@@H]2CNC(=O)[C@H]2Nc2nnc(C3CCC(F)(F)CC3)o2)c(F)c1 [Example 25, (3S,4R)-4-(2,6-difluoro-4-methoxyphenyl)-3-{[5-(4,4-difluorocyclohexyl)-1,3,4-oxadiazol-2-yl]amino}pyrrolidin-2-one]	0.15 to 1	
COc1cc(F)c([C@@H]2CNC(=O)[C@H]2Nc2nnc(C3CC3c3ccccc3OC)o2)c(F)c1 (stereo partly drawn) [Example 44, (3S,4R)-4-(2,6-difluoro-4-methoxyphenyl)-3-({5-[2-(2-methoxyphenyl)cyclopropyl]-1,3,4-oxadiazol-2-yl}amino)pyrrolidin-2-one]	0.04 to 0.15	
COc1cc(F)c([C@@H]2CNC(=O)[C@H]2Nc2nnc(C3CC3c3cc(F)cc(F)c3)o2)c(F)c1 (stereo partly drawn) [Example 42, (3S,4R)-4-(2,6-difluoro-4-methoxyphenyl)-3-({5-[2-(3,5-difluorophenyl)cyclopropyl]-1,3,4-oxadiazol-2-yl}amino)pyrrolidin-2-one]	0.04 to 0.15	
COc1cc(F)c([C@@H]2CNC(=O)[C@H]2Nc2nnc(-c3ccc(Oc4cnc(Cl)cn4)cc3)o2)c(F)c1 [Example 60, (3S,4R)-3-[(5-{4-[(5-chloropyrazin-2-yl)oxy]phenyl}-1,3,4-oxadiazol-2-yl)amino]-4-(2,6-difluoro-4-methoxyphenyl)pyrrolidin-2-one]	0.04 to 0.15	
COc1cc(F)c([C@@H]2CNC(=O)[C@H]2Nc2nnc(-c3ccccc3)o2)c(F)c1 [Example 4, (3S,4R)-4-(2,6-difluoro-4-methoxyphenyl)-3-[(5-phenyl-1,3,4-oxadiazol-2-yl)amino]pyrrolidin-2-one]	0.15 to 1	
COc1cc(F)c([C@@H]2CNC(=O)[C@H]2Nc2nnc(-c3ccc(OC(F)(F)F)cc3)o2)c(F)c1 [Example 7, (3S,4R)-4-(2,6-difluoro-4-methoxyphenyl)-3-({5-[4-(trifluoromethoxy)phenyl]-1,3,4-oxadiazol-2-yl}amino)pyrrolidin-2-one]	0.04 to 0.15	
COc1cc(F)c([C@@H]2CNC(=O)[C@H]2Nc2nnc(-c3ccc(Oc4cc(C#N)ccn4)cc3)o2)c(F)c1 [Example 48, 2-[4-(5-{[(3S,4R)-4-(2,6-difluoro-4-methoxyphenyl)-2-oxopyrrolidin-3-yl]amino}-1,3,4-oxadiazol-2-yl)phenoxy]pyridine-4-carbonitrile]	0.04 to 0.15	
COc1cc(F)c([C@@H]2CNC(=O)[C@H]2Nc2nnc(-c3ccc(C(F)(F)F)nc3)s2)c(F)c1 [Example 33, (3S,4R)-4-(2,6-difluoro-4-methoxyphenyl)-3-({5-[6-(trifluoromethyl)pyridin-3-yl]-1,3,4-thiadiazol-2-yl}amino)pyrrolidin-2-one]	0.15 to 1	
COc1cc(F)c([C@@H]2CNC(=O)[C@H]2Nc2nnc(-c3ccc(Oc4cncc(C)n4)cc3)o2)c(F)c1 [Example 63, (3S,4R)-4-(2,6-difluoro-4-methoxyphenyl)-3-[(5-{4-[(6-methylpyrazin-2-yl)oxy]phenyl}-1,3,4-oxadiazol-2-yl)amino]pyrrolidin-2-one]	0.04 to 0.15	
COc1cc(F)c([C@@H]2CNC(=O)[C@H]2Nc2nnc(-c3ccc(F)cc3)o2)c(F)c1 [Example 12, (3S,4R)-4-(2,6-difluoro-4-methoxyphenyl)-3-{[5-(4-fluorophenyl)-1,3,4-oxadiazol-2-yl]amino}pyrrolidin-2-one]	0.04 to 0.15	
COc1cc(F)c([C@@H]2CNC(=O)[C@H]2Nc2nnc(-c3ccc(C4CC4)cc3)o2)c(F)c1 [Example 38, (3S,4R)-3-{[5-(4-cyclopropylphenyl)-1,3,4-oxadiazol-2-yl]amino}-4-(2,6-difluoro-4-methoxyphenyl)pyrrolidin-2-one]	0.15 to 1	

Results, then the compound that gave them:

EC50 [1] [µM]	EC50 (CHO cells overexpressing human FPR2, forskolin 5 μM, inhibition of cAMP production, read-out: hFPR2 cAMP2 EC50) [µM]	SMILES
0.04 to 0.15		COc1cc(F)c([C@@H]2CNC(=O)[C@H]2Nc2nnc(-c3ccc(C(F)F)cc3)o2)c(F)c1 [Example 17, (3S,4R)-4-(2,6-difluoro-4-methoxyphenyl)-3-({5-[4-(difluoromethyl)phenyl]-1,3,4-oxadiazol-2-yl}amino)pyrrolidin-2-one]
≤ 0.04		COc1cc(F)c([C@@H]2CNC(=O)[C@H]2Nc2nnc(C3CC3c3ccc(Cl)cc3F)o2)c(F)c1 (stereo partly drawn) [Example 46, (3S,4R)-3-({5-[2-(4-chloro-2-fluorophenyl)cyclopropyl]-1,3,4-oxadiazol-2-yl}amino)-4-(2,6-difluoro-4-methoxyphenyl)pyrrolidin-2-one]
≤ 0.04		COc1cc(F)c([C@@H]2CNC(=O)[C@H]2Nc2nnc(-c3ccc(Cl)cc3)s2)c(F)c1 [Example 2, (3S,4R)-3-{[5-(4-chlorophenyl)-1,3,4-thiadiazol-2-yl]amino}-4-(2,6-difluoro-4-methoxyphenyl)pyrrolidin-2-one]
0.04 to 0.15		COc1cc(F)c([C@@H]2CNC(=O)[C@H]2Nc2nnc(-c3ccc(Oc4ncccc4C#N)cc3)o2)c(F)c1 [Example 66, 2-[4-(5-{[(3S,4R)-4-(2,6-difluoro-4-methoxyphenyl)-2-oxopyrrolidin-3-yl]amino}-1,3,4-oxadiazol-2-yl)phenoxy]pyridine-3-carbonitrile]
0.04 to 0.15		COc1cc(F)c([C@@H]2CNC(=O)[C@H]2Nc2nnc(-c3ccc(Cl)nc3)s2)c(F)c1 [Example 31, (3S,4R)-3-{[5-(6-chloropyridin-3-yl)-1,3,4-thiadiazol-2-yl]amino}-4-(2,6-difluoro-4-methoxyphenyl)pyrrolidin-2-one]
0.04 to 0.15		COc1cc(F)c([C@@H]2CNC(=O)[C@H]2Nc2nnc(-c3ccc(Oc4cc(OC)ncn4)cc3)o2)c(F)c1 [Example 62, (3S,4R)-4-(2,6-difluoro-4-methoxyphenyl)-3-[(5-{4-[(6-methoxypyrimidin-4-yl)oxy]phenyl}-1,3,4-oxadiazol-2-yl)amino]pyrrolidin-2-one]
≤ 0.04		COc1cc(F)c([C@@H]2CNC(=O)[C@H]2Nc2noc3cc(Cl)ccc23)c(F)c1 [Example 50, (3S,4R)-3-[(6-chloro-1,2-benzoxazol-3-yl)amino]-4-(2,6-difluoro-4-methoxyphenyl)pyrrolidin-2-one]
≤ 0.04		COc1cc(F)c([C@@H]2CNC(=O)[C@H]2Nc2nnc(-c3ccc(Cl)cc3)o2)c(F)c1 [Example 3, (3S,4R)-3-{[5-(4-chlorophenyl)-1,3,4-oxadiazol-2-yl]amino}-4-(2,6-difluoro-4-methoxyphenyl)pyrrolidin-2-one]
≤ 0.04		COc1cc(F)c([C@@H]2CNC(=O)[C@H]2Nc2nnc(-c3ccc(Oc4cccc(F)n4)cc3)o2)c(F)c1 [Example 64, (3S,4R)-4-(2,6-difluoro-4-methoxyphenyl)-3-[(5-{4-[(6-fluoropyridin-2-yl)oxy]phenyl}-1,3,4-oxadiazol-2-yl)amino]pyrrolidin-2-one]
≤ 0.04		COc1cc(F)c([C@@H]2CNC(=O)[C@H]2Nc2nnc(C3CC3c3ccc(Cl)cc3)o2)c(F)c1 (stereo partly drawn) [Example 41, (3S,4R)-3-({5-[2-(4-chlorophenyl)cyclopropyl]-1,3,4-oxadiazol-2-yl}amino)-4-(2,6-difluoro-4-methoxyphenyl)pyrrolidin-2-one]

From patent US12281108B2, “Pyrrolidinone derivatives as formyl peptide 2 receptor agonists” (BRISTOL-MYERS SQUIBB COMPANY, priority 2018, dated 2025)
